Paper PMC8160793, “Potent Antimicrobial and Antibiofilm Activities of Feleucin-K3 Analogs Modified by α-(4-Pentenyl)-Ala against Multidrug-Resistant Bacteria” (Biomolecules, 2021)
≈ marks a conversion by molar mass, not a printed value. Read-outs that look alike come from different tables or passages of the source. Square brackets hold non-standard residues; d marks the D form. Ends that are not written are not given here. Peptide text beside a SMILES is read from it. ξ: configuration not given here. ξαMeGly(pent-4-enyl) = C=CCCCC(C)(N)C(=O)O

Tests used:
P. aeruginosa ATCC 27853 = assay type: cell-based, Pseudomonas aeruginosa
Procedure: (§1) The minimum inhibitory concentration (MIC) of the Feleucin-K3 analogs was tested by the broth microdilution method. Sensitive bacteria and drug-resistant bacteria were diluted to 1 × 10^6 CFU/mL, according to the McFarland standards. Bacterial suspension and peptide solutions (8–128 μg/mL) were incubated at 37 °C for 18 h. The minimum concentration without obvious bacterial growth was the MIC of the peptides. The stability of the analogs in a physiological salt environment was also investigated. In brief, salt powder (450-mM NaCl) was dissolved in deionized water, and the following investigational steps were the same as those described before. The above steps were repeated several times, until the same value was obtained three times.

S. aureus ATCC 25923 = assay type: cell-based, Staphylococcus aureus
Procedure: as §1

A. baumannii ATCC 19606 = assay type: cell-based, Acinetobacter baumannii
Procedure: as §1

E. coli ATCC 25922 = assay type: cell-based
Procedure: as §1

MRSA 48 = assay type: cell-based, Staphylococcus aureus; details: 48, 18 h
Procedure: as §1

S. aureus 794 = assay type: cell-based, Staphylococcus aureus; details: 794, 18 h
Procedure: as §1

MRSA 936 = assay type: cell-based, Staphylococcus aureus; details: 936, 18 h
Procedure: as §1

MRSA 71 = assay type: cell-based, Staphylococcus aureus; details: 71, 18 h
Procedure: as §1

MRSA ATCC 33591 = assay type: cell-based, Staphylococcus aureus; details: ATCC 33591, 18 h
Procedure: as §1

MRSA 51 = assay type: cell-based, Staphylococcus aureus; details: 51, 18 h
Procedure: as §1

MRSA 74 = assay type: cell-based, Staphylococcus aureus; details: 74, 18 h
Procedure: as §1

S. aureus 725 = assay type: cell-based, Staphylococcus aureus; details: 725, 18 h
Procedure: as §1

MRSA 54 = assay type: cell-based, Staphylococcus aureus; details: 54, 18 h
Procedure: as §1

MRSA 23 = assay type: cell-based, Staphylococcus aureus; details: 23, 18 h
Procedure: as §1

MRSA 113 = assay type: cell-based, Staphylococcus aureus; details: 113, 18 h
Procedure: as §1

MRSA 52 = assay type: cell-based, Staphylococcus aureus; details: 52, 18 h
Procedure: as §1

MRSA 75 = assay type: cell-based, Staphylococcus aureus; details: 75, 18 h
Procedure: as §1

A. baumannii 9896 = assay type: cell-based, Acinetobacter baumannii; details: 9896, 18 h
Procedure: as §1

A. baumannii 92359 = assay type: cell-based, Acinetobacter baumannii; details: 92359, 18 h
Procedure: as §1

A. baumannii 9828 = assay type: cell-based, Acinetobacter baumannii; details: 9828, 18 h
Procedure: as §1

A. baumannii 51243 = assay type: cell-based, Acinetobacter baumannii; details: 51243, 18 h
Procedure: as §1

A. baumannii 9236 = assay type: cell-based, Acinetobacter baumannii; details: 9236, 18 h
Procedure: as §1

A. baumannii 9840 = assay type: cell-based, Acinetobacter baumannii; details: 9840, 18 h
Procedure: as §1

A. baumannii 91199 = assay type: cell-based, Acinetobacter baumannii; details: 91199, 18 h
Procedure: as §1

A. baumannii 97830 = assay type: cell-based, Acinetobacter baumannii; details: 97830, 18 h
Procedure: as §1

A. baumannii 5444 = assay type: cell-based, Acinetobacter baumannii; details: 5444, 18 h
Procedure: as §1

A. baumannii 91810 = assay type: cell-based, Acinetobacter baumannii; details: 91810, 18 h
Procedure: as §1

A. baumannii 8309 = assay type: cell-based, Acinetobacter baumannii; details: 8309, 18 h
Procedure: as §1

A. baumannii 91105 = assay type: cell-based, Acinetobacter baumannii; details: 91105, 18 h
Procedure: as §1

A. baumannii 91869 = assay type: cell-based, Acinetobacter baumannii; details: 91869, 18 h
Procedure: as §1

A. baumannii 822144 = assay type: cell-based, Acinetobacter baumannii; details: 822144, 18 h
Procedure: as §1

A. baumannii 9336 = assay type: cell-based, Acinetobacter baumannii; details: 9336, 18 h
Procedure: as §1

A. baumannii 91152 = assay type: cell-based, Acinetobacter baumannii; details: 91152, 18 h
Procedure: as §1

A. baumannii 98110 = assay type: cell-based, Acinetobacter baumannii; details: 98110, 18 h
Procedure: as §1

A. baumannii 91944 = assay type: cell-based, Acinetobacter baumannii; details: 91944, 18 h
Procedure: as §1

A. baumannii 9331 = assay type: cell-based, Acinetobacter baumannii; details: 9331, 18 h
Procedure: as §1

A. baumannii 9234 = assay type: cell-based, Acinetobacter baumannii; details: 9234, 18 h
Procedure: as §1

[1] = broth microdilution, 1 × 10^6 CFU/mL, 37 °C, 18 h

Compound	MIC, P. aeruginosa ATCC 27853 (P. aeruginosa ATCC 27853; ATCC 27853, 18 h)	MIC, S. aureus ATCC 25923 (S. aureus ATCC 25923; ATCC 25923, 18 h)	MIC, A. baumannii ATCC 19606 (A. baumannii ATCC 19606; ATCC 19606, 18 h)	MIC, E. coli ATCC 25922 (E. coli ATCC 25922; ATCC 25922, 18 h)	MIC, MRSA 48 (MRSA 48)	MIC, S. aureus 794 (S. aureus 794)	MIC, MRSA 936 (MRSA 936)	MIC, MRSA 71 (MRSA 71)	MIC, MRSA ATCC 33591 (MRSA ATCC 33591)	MIC, MRSA 51 (MRSA 51)	MIC, MRSA 74 (MRSA 74)	MIC, S. aureus 725 (S. aureus 725)	MIC, MRSA 54 (MRSA 54)	MIC, MRSA 23 (MRSA 23)	MIC, MRSA 113 (MRSA 113)	MIC, MRSA 52 (MRSA 52)	MIC, MRSA 75 (MRSA 75)	MIC, A. baumannii 9896 (A. baumannii 9896)	MIC, A. baumannii 92359 (A. baumannii 92359)	MIC, A. baumannii 9828 (A. baumannii 9828)	also measured
C=CCCCC(C)(NC(=O)[C@H](CCCCN)NC(=O)[C@@H](N)CC(C)C)C(=O)N[C@@H](CC(C)C)C(=O)N[C@@H](CCCCN)C(=O)N[C@@H](CCCCN)C(=O)N[C@@H](CC(C)C)C(=O)N[C@@H](CC(C)C)C(N)=O (stereo partly drawn) [Feleucin-K64] (H-LK[ξαMeGly(pent-4-enyl)]LKKLL-NH2)	4 µg/mL (≈ 4.03 µM)	16 µg/mL (≈ 16.1 µM)	64 µg/mL (≈ 64.4 µM)	16 µg/mL (≈ 16.1 µM)																	
C=CCCCC(C)(N)C(=O)N[C@@H](CC(C)C)C(=O)N[C@@H](CCCCN)C(=O)N[C@@H](C)C(=O)N[C@@H](CCCCN)C(=O)N[C@@H](CCCCN)C(=O)N[C@@H](CC(C)C)C(=O)N[C@@H](CC(C)C)C(N)=O (stereo partly drawn) [Feleucin-K66] (H-[ξαMeGly(pent-4-enyl)]LKAKKLL-NH2)	>128 µg/mL	>128 µg/mL	>128 µg/mL	>128 µg/mL																	
C=CCCCC(C)(NC(=O)[C@@H](N)Cc1ccccc1)C(=O)N[C@@H](CCCCN)C(=O)N[C@@H](CC(C)C)C(=O)N[C@@H](CC(C)C)C(=O)N[C@@H](CCCCN)C(=O)N[C@@H](CCCCN)C(=O)N[C@@H](CC(C)C)C(=O)N[C@@H](CC(C)C)C(N)=O (stereo partly drawn) [Feleucin-K67] (H-F[ξαMeGly(pent-4-enyl)]KLLKKLL-NH2)	8 µg/mL (≈ 7.01 µM)	4 µg/mL (≈ 3.51 µM)	4 µg/mL (≈ 3.51 µM)	8 µg/mL (≈ 7.01 µM)	4 µg/mL (≈ 3.51 µM)	8 µg/mL (≈ 7.01 µM)	4 µg/mL (≈ 3.51 µM)	4 µg/mL (≈ 3.51 µM)	4 µg/mL (≈ 3.51 µM)	4 µg/mL (≈ 3.51 µM)	4 µg/mL (≈ 3.51 µM)	4 µg/mL (≈ 3.51 µM)	4 µg/mL (≈ 3.51 µM)	4 µg/mL (≈ 3.51 µM)	4 µg/mL (≈ 3.51 µM)	4 µg/mL (≈ 3.51 µM)	4 µg/mL (≈ 3.51 µM)	4 µg/mL (≈ 3.51 µM)	4 µg/mL (≈ 3.51 µM)	4 µg/mL (≈ 3.51 µM)	MIC, A. baumannii 51243 (A. baumannii 51243): 4 µg/mL (≈ 3.51 µM); MIC, A. baumannii 9236 (A. baumannii 9236): 4 µg/mL (≈ 3.51 µM); MIC, A. baumannii 9840 (A. baumannii 9840): 4 µg/mL (≈ 3.51 µM); MIC, A. baumannii 91199 (A. baumannii 91199): 4 µg/mL (≈ 3.51 µM); MIC, A. baumannii 97830 (A. baumannii 97830): 4 µg/mL (≈ 3.51 µM); MIC, A. baumannii 5444 (A. baumannii 5444): 4 µg/mL (≈ 3.51 µM); MIC, A. baumannii 91810 (A. baumannii 91810): 4 µg/mL (≈ 3.51 µM); MIC, A. baumannii 8309 (A. baumannii 8309): 4 µg/mL (≈ 3.51 µM); MIC, A. baumannii 91105 (A. baumannii 91105): 4 µg/mL (≈ 3.51 µM); MIC, A. baumannii 91869 (A. baumannii 91869): 4 µg/mL (≈ 3.51 µM); MIC, A. baumannii 822144 (A. baumannii 822144): 4 µg/mL (≈ 3.51 µM); MIC, A. baumannii 9336 (A. baumannii 9336): 4 µg/mL (≈ 3.51 µM); MIC, A. baumannii 91152 (A. baumannii 91152): 4 µg/mL (≈ 3.51 µM); MIC, A. baumannii 98110 (A. baumannii 98110): 4 µg/mL (≈ 3.51 µM); MIC, A. baumannii 91944 (A. baumannii 91944): 4 µg/mL (≈ 3.51 µM); MIC, A. baumannii 9331 (A. baumannii 9331): 8 µg/mL (≈ 7.01 µM); MIC, A. baumannii 9234 (A. baumannii 9234): 4 µg/mL (≈ 3.51 µM)
C=CCCCC(C)(NC(=O)[C@H](CC(C)C)NC(=O)[C@H](CCCCN)NC(=O)[C@H](CC(C)C)NC(=O)[C@@H](N)Cc1ccccc1)C(=O)N[C@@H](CCCCN)C(=O)N[C@@H](CCCCN)C(=O)N[C@@H](CC(C)C)C(=O)N[C@@H](CC(C)C)C(N)=O (stereo partly drawn) [Feleucin-K68] (H-FLKL[ξαMeGly(pent-4-enyl)]KKLL-NH2)	8 µg/mL (≈ 7.01 µM)	4 µg/mL (≈ 3.51 µM)	4 µg/mL (≈ 3.51 µM)	8 µg/mL (≈ 7.01 µM)	4 µg/mL (≈ 3.51 µM)	8 µg/mL (≈ 7.01 µM)	4 µg/mL (≈ 3.51 µM)	8 µg/mL (≈ 7.01 µM)	4 µg/mL (≈ 3.51 µM)	4 µg/mL (≈ 3.51 µM)	4 µg/mL (≈ 3.51 µM)	4 µg/mL (≈ 3.51 µM)	4 µg/mL (≈ 3.51 µM)	4 µg/mL (≈ 3.51 µM)	4 µg/mL (≈ 3.51 µM)	8 µg/mL (≈ 7.01 µM)	4 µg/mL (≈ 3.51 µM)	4 µg/mL (≈ 3.51 µM)	4 µg/mL (≈ 3.51 µM)	4 µg/mL (≈ 3.51 µM)	MIC, A. baumannii 51243 (A. baumannii 51243): 4 µg/mL (≈ 3.51 µM); MIC, A. baumannii 9236 (A. baumannii 9236): 4 µg/mL (≈ 3.51 µM); MIC, A. baumannii 9840 (A. baumannii 9840): 4 µg/mL (≈ 3.51 µM); MIC, A. baumannii 91199 (A. baumannii 91199): 4 µg/mL (≈ 3.51 µM); MIC, A. baumannii 97830 (A. baumannii 97830): 4 µg/mL (≈ 3.51 µM); MIC, A. baumannii 5444 (A. baumannii 5444): 4 µg/mL (≈ 3.51 µM); MIC, A. baumannii 91810 (A. baumannii 91810): 4 µg/mL (≈ 3.51 µM); MIC, A. baumannii 8309 (A. baumannii 8309): 4 µg/mL (≈ 3.51 µM); MIC, A. baumannii 91105 (A. baumannii 91105): 4 µg/mL (≈ 3.51 µM); MIC, A. baumannii 91869 (A. baumannii 91869): 4 µg/mL (≈ 3.51 µM); MIC, A. baumannii 822144 (A. baumannii 822144): 4 µg/mL (≈ 3.51 µM); MIC, A. baumannii 9336 (A. baumannii 9336): 4 µg/mL (≈ 3.51 µM); MIC, A. baumannii 91152 (A. baumannii 91152): 4 µg/mL (≈ 3.51 µM); MIC, A. baumannii 98110 (A. baumannii 98110): 4 µg/mL (≈ 3.51 µM); MIC, A. baumannii 91944 (A. baumannii 91944): 4 µg/mL (≈ 3.51 µM); MIC, A. baumannii 9331 (A. baumannii 9331): 8 µg/mL (≈ 7.01 µM); MIC, A. baumannii 9234 (A. baumannii 9234): 4 µg/mL (≈ 3.51 µM)
GIGKFLHSAKKFGKAFVGEIMNS [Magainin 2, reference compound]																					MIC, P. aeruginosa ATCC 27853 (P. aeruginosa ATCC 27853; [1]): 256 µg/mL; MIC, S. aureus ATCC 25923 (S. aureus ATCC 25923; [1]): > 256 µg/mL; MIC, A. baumannii ATCC 19606 (A. baumannii ATCC 19606; [1]): 16 µg/mL; MIC, E. coli ATCC 25922 (E. coli ATCC 25922; [1]): 64 µg/mL
LKLLKKLL-NH2 [Feleucin-K63]	64 µg/mL	>128 µg/mL	>128 µg/mL	>128 µg/mL																	
